In paper PMC9801504, “Stable Isotopomers of myo-Inositol Uncover a Complex MINPP1-Dependent Inositol Phosphate Network” (ACS Central Science, 2022):
pIC50: −log10 of the molar value.

Biological target: T1, MINPP1 (Homo sapiens, UniProt Q9UNW1)
T1 construct: recombinant, expressed in and purified from E. coli; borders and tags only in the supplement
T1 sequence (Q9UNW1 31-487): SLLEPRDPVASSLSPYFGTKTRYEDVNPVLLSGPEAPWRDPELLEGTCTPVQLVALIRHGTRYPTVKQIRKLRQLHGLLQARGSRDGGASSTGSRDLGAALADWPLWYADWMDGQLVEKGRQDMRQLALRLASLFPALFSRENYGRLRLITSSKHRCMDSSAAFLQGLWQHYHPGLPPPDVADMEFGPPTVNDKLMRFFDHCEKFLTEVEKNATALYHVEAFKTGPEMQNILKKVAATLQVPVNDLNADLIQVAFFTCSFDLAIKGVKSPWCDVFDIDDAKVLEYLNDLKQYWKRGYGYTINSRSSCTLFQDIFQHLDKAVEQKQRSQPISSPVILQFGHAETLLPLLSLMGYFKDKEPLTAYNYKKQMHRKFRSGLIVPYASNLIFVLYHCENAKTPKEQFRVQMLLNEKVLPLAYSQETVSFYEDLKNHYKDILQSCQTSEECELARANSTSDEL
Assay: 2D NMR of dephosphorylation of [[…]6]InsP5[2OH]
Type: biochemical
Conditions: read-out: apparent IC50

O=P(O)(O)O[C@H]1[C@H](OP(=O)(O)O)[C@@H](OP(=O)(O)O)[C@H](OP(=O)(O)O)[C@@H](OP(=O)(O)O)[C@H]1OP(=O)(O)O [InsP6]
pIC50: 5.70
